Tests used:
Type in all cases: binding
NMUR2 = target: T1, NMUR2 (Homo sapiens, UniProt Q9GZQ4); experiment: NanoBRET screen HiBiT-NMUR2 in HEK293
T1 construct: purchased Promega (in-house HiBiT-GPCR construct library, NanoBRET)
Protocol: (§1) Each tracer candidate was screened across the entire library of HiBiT-GPCR constructs using NanoBRET as the detection modality. As depicted in Figure 4A, the specificity of interactions was evaluated through decrease in BRET due to competitive displacement of a bound tracer by excess parental compound. Each tracer was analyzed for binding to each HiBiT-GPCR fusion in the absence and in the presence of competing parental compound. Briefly, HEK293 cells were transfected with HiBiT-GPCR constructs diluted into promoterless DNA to reduce expression and maximize translocation to the cell surface. Each tracer candidate was then screened at concentrations of 1 μM and 0.1 μM across cells expressing these fusions. Cells were treated for 1.5 h with tracer either alone or in the presence of 20 μM competing parental compound (i.e., control). BRET was measured upon addition of purified LgBiT and subsequent complementation with HiBiT genetically fused to a GPCR. The specificity of interactions was assessed through a decrease in BRET signal due to competitive displacement of the bound tracer. To further gauge the robustness of these interactions, the fold response over the control (i.e., BRETtracer/BRETcontrol) was calculated. We chose a 1.5-fold response, which translates to ≥7-fold signal over noise as the minimal threshold required to score an interaction as positive. […]. Below we highlight the screening results obtained for our exemplary fluorescent tracers based on Clozapine, Amitriptyline and AZD1283.
(§2) HiBiT-GPCR DNA constructs were diluted in 10 mM Tris pH 8 to a final concentration of 0.01 μg/μL, arrayed in 96-well plates and stored at −20 °C. For transfection, HEK293 cells were suspended in Opti-MEM (without phenol red) supplemented with 2% fetal bovine serum (Seradigm) and 100 units/mL penicillin–streptomycin (Gibco) at a final concentration of 220,000 cells/mL and dispensed into white 96-well plates at 90 μL/well. Subsequent transfections and screens were carried using an Agilent Bravo Automated Liquid Handling Platform. First, the 96-well HiBiT DNA arrays were diluted 25-fold in Opti-MEM (without serum or phenol red) to a final concentration of 0.0004 μg/μL and 20 μL of the diluted DNAs were transferred into new 96-well plates. Next, promoterless carrier DNA (1 μg/μL) was diluted 25-fold (0.04 μg/μL) and then dispensed into the diluted arrays at 20 μL/well. Following brief mixing, Viafect transfection reagent (Promega) diluted 16-fold into Opti-MEM was dispensed into the plates at 40 μL/well. After mixing by pipetting, plates were incubated for 10 min on the pipetting station deck. The DNA-transfection reagent complexes were then added to plates containing cells. To facilitate the screen, 10 μL of DNA-transfection reagent complexes were added in duplicates to the top 4 and bottom 4 rows, resulting in two identical 48-well arrays per plate. Plates with transfected cells were incubated for 18–20 h at 37 °C/5% CO2. A screen of each tracer across the entire library using two different concentrations requires duplicate plates of transfected cells. Depending on the number of tracers being screened, transfections can be scaled up using the same ratios. The next day, for each tracer, four 20× screening solutions in tracer dilution buffer (Promega) were prepared: two duplicates at final concentration of 20 μM and two duplicates at a final concentration of 2 μM. A competing unmodified compound was added to one of each duplicate at a final concentration of 400 μM. The four resulting solutions were diluted 4-fold in Opti-MEM without serum or phenol red to generate 5× solutions (5 µM and 0.5 µM tracer +/− 100 μM competing compound). To screen the library, a BioTek MultiFlo FX liquid dispenser was used to dispense 22.5 µL of tracer solution to the top 4 rows and 22.5 µL tracer + competing compound solution to the 4 bottom rows. Plates were briefly mixed on an orbital shaker and incubated for 1.5 h at room temperature. […]

P2RY11 = target: T2, P2RY11 (Homo sapiens, UniProt Q96G91); experiment: NanoBRET screen HiBiT-P2RY11 in HEK293
T2 construct: purchased Promega (in-house HiBiT-GPCR construct library, NanoBRET)
T2 sequence (Q96G91 1-374): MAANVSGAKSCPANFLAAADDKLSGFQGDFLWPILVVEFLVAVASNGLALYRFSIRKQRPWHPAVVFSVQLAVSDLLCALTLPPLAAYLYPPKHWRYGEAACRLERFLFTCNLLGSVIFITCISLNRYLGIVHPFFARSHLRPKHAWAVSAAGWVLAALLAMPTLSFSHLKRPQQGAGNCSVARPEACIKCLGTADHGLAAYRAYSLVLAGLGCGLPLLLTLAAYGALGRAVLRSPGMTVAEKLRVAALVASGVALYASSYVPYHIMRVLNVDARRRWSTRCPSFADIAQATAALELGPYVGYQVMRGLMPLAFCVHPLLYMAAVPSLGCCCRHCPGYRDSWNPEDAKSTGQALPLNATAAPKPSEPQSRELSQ
Protocol: as §1, §2

HTR1D = target: T3, HTR1D (Homo sapiens, UniProt P28221); experiment: NanoBRET screen HiBiT-HTR1D in HEK293
T3 construct: purchased Promega (in-house HiBiT-GPCR construct library, NanoBRET)
T3 sequence (P28221 whole entry): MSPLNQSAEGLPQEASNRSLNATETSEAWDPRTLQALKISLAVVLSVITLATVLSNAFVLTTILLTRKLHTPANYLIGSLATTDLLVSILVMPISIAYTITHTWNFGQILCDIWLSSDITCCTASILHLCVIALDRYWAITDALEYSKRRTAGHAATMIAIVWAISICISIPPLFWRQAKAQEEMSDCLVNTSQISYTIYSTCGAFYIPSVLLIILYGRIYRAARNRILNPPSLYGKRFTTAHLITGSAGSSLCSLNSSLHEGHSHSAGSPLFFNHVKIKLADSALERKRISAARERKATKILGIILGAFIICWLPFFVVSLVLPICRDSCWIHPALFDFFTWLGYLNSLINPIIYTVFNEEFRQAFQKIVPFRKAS
Protocol: as §1, §2

P2RY10 = target: T4, P2RY10 (Homo sapiens, UniProt O00398); experiment: NanoBRET screen HiBiT-P2RY10 in HEK293
T4 construct: purchased Promega (in-house HiBiT-GPCR construct library, NanoBRET)
T4 sequence (O00398 whole entry, one chain of several): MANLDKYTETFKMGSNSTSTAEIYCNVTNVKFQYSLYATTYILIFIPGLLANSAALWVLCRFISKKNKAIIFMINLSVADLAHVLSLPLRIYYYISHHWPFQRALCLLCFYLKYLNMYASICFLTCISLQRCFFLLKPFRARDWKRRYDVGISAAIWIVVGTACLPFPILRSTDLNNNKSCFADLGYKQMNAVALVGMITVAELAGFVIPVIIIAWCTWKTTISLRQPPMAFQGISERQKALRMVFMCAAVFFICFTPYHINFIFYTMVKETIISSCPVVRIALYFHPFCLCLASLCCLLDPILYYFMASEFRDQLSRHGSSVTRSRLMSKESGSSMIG
Protocol: as §1, §2

CX3CR1 = target: T5, CX3CR1 (Homo sapiens, UniProt P49238); experiment: NanoBRET screen HiBiT-CX3CR1 in HEK293
T5 construct: purchased Promega (in-house HiBiT-GPCR construct library, NanoBRET)
T5 sequence (P49238 1-355): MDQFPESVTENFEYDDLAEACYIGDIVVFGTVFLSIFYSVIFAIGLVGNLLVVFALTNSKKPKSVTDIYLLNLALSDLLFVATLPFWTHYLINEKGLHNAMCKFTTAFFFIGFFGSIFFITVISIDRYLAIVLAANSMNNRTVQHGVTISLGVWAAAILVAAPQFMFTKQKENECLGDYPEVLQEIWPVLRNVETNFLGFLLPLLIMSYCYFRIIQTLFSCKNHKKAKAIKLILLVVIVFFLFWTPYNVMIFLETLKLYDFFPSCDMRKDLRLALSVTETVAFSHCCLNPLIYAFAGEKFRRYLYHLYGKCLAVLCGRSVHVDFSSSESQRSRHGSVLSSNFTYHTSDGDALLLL
Protocol: as §1, §2

T1 sequence (Q9GZQ4 whole entry): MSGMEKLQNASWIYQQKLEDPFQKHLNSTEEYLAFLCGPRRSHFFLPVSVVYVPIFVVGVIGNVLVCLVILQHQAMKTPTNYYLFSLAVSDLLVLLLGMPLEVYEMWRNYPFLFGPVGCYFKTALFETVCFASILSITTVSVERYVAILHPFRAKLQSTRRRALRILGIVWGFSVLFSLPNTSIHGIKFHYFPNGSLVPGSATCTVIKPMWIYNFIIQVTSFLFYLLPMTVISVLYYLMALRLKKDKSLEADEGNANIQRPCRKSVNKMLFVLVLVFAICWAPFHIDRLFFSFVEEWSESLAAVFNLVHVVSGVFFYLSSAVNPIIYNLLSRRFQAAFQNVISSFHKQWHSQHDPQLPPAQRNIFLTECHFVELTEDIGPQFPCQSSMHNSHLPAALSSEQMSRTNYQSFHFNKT

SMILES | NanoBRET Fold Response (NMUR2; NMUR2, tracer 0.1μM) | NanoBRET Fold Response (NMUR2; NMUR2, tracer 1μM) | NanoBRET Fold Response (P2RY11; P2RY11, tracer 0.1μM) | NanoBRET Fold Response (P2RY11; P2RY11, tracer 1μM) | NanoBRET Fold Response (HTR1D; HTR1D, tracer 0.1μM) | NanoBRET Fold Response (HTR1D; HTR1D, tracer 1μM) | NanoBRET Fold Response (P2RY10; P2RY10, tracer 0.1μM) | NanoBRET Fold Response (P2RY10; P2RY10, tracer 1μM) | NanoBRET Fold Response (CX3CR1; CX3CR1, tracer 0.1μM) | NanoBRET Fold Response (CX3CR1; CX3CR1, tracer 1μM) | further results
O=C(CCc1ccc2n1[B-](F)(F)[N+]1=C(c3ccc[nH]3)C=CC1=C2)NCc1ccc(C(=O)NCCOCCC(=O)N[C@@H]2CC[C@@]3(O)[C@H]4Cc5ccc(O)c6c5[C@@]3(CCN4CC3CC3)[C@H]2O6)cc1 [Naltrexone-3-NB590] | 0.78 | 0.84 | 1.26 | 0.71 | 0.53 | 0.94 | 1.07 | 1.36 | 1.32 | 0.81 | –
CC(C)N(CC[C@H](c1ccccc1)c1cc(CCNC(=O)CCOCCOCCOCCOCCNC(=O)CCc2ccc3n2[B-](F)(F)[N+]2=C(c4ccc[nH]4)C=CC2=C3)ccc1O)C(C)C [Tolterodine-2-NB590] | 1.31 | 1.07 | 1.31 | 0.83 | 1.35 | 0.68 | 0.91 | 0.89 | 1.32 | 1.06 | –
Cc1nc2n(c(=O)c1CCN1CCC(c3noc4cc(F)ccc34)CC1)CCCC2OC(=O)NCCOCCOCCOCCOCCNC(=O)CCc1ccc2n1[B-](F)(F)[N+]1=C(c3ccc[nH]3)C=CC1=C2 (stereo not shown) [Risperidone-2-NB590] | 1.09 | 1.05 | 1.04 | 0.88 | 1.38 | 1.86 | 1.14 | 1.14 | 1.06 | 1.02 | –
O=C(CCOCCOCCOCCOCCNC(=O)CCc1ccc2n1[B-](F)(F)[N+]1=C(c3ccc[nH]3)C=CC1=C2)NCCCN1CCN(C2=Nc3cc(Cl)ccc3Nc3ccccc32)CC1 [Clozapine-a-2-NB590] | – | – | – | – | – | – | – | – | – | – | NanoBRET Fold Response (NMUR2; NMUR2, 0.1μM tracer): 0.93; NanoBRET Fold Response (NMUR2; NMUR2, 1μM tracer): 1.01; NanoBRET Fold Response (P2RY11; P2RY11, 0.1μM tracer): 1.04; NanoBRET Fold Response (P2RY11; P2RY11, 1μM tracer): 0.93; NanoBRET Fold Response (HTR1D; HTR1D, 0.1μM tracer): 1.21; NanoBRET Fold Response (HTR1D; HTR1D, 1μM tracer): 1.67; NanoBRET Fold Response (P2RY10; P2RY10, 0.1μM tracer): 1.18; NanoBRET Fold Response (P2RY10; P2RY10, 1μM tracer): 1.33; NanoBRET Fold Response (CX3CR1; CX3CR1, 0.1μM tracer): 1.08; NanoBRET Fold Response (CX3CR1; CX3CR1, 1μM tracer): 1.07
COc1ccc2[nH]c(-c3ccc(CNC(=O)CCOCCOCCOCCOCCNC(=O)CCc4ccc5n4[B-](F)(F)[N+]4=C(c6ccc[nH]6)C=CC4=C5)cc3)c(CCNC(C)=O)c2n1 [AzomelatoninICO9-2-NB590] | – | – | – | – | – | – | – | – | – | – | NanoBRET Fold Response (NMUR2; 0.1μM tracer): 0.71; NanoBRET Fold Response (NMUR2; 1μM tracer): 0.99; NanoBRET Fold Response (P2RY11; 0.1μM tracer): 1.19; NanoBRET Fold Response (P2RY11; 1μM tracer): 0.97; NanoBRET Fold Response (HTR1D; 0.1μM tracer): 0.63; NanoBRET Fold Response (HTR1D; 1μM tracer): 1.14; NanoBRET Fold Response (P2RY10; 0.1μM tracer): 0.88; NanoBRET Fold Response (P2RY10; 1μM tracer): 1.15; NanoBRET Fold Response (CX3CR1; 0.1μM tracer): 1.07; NanoBRET Fold Response (CX3CR1; 1μM tracer): 1.19
CN1CCN(C2=Nc3cc(Cl)ccc3Nc3ccc(CNC(=O)CCOCCOCCOCCOCCNC(=O)CCc4ccc5n4[B-](F)(F)[N+]4=C(c6ccc[nH]6)C=CC4=C5)cc32)CC1 [Clozapine-b-2-NB590] | – | – | – | – | – | – | – | – | – | – | NanoBRET Fold Response (NMUR2; NMUR2, 0.1μM tracer): 0.97; NanoBRET Fold Response (NMUR2; NMUR2, 1μM tracer): 1.00; NanoBRET Fold Response (P2RY11; P2RY11, 0.1μM tracer): 1.04; NanoBRET Fold Response (P2RY11; P2RY11, 1μM tracer): 0.98; NanoBRET Fold Response (HTR1D; HTR1D, 0.1μM tracer): 1.08; NanoBRET Fold Response (HTR1D; HTR1D, 1μM tracer): 1.48; NanoBRET Fold Response (P2RY10; P2RY10, 0.1μM tracer): 0.96; NanoBRET Fold Response (P2RY10; P2RY10, 1μM tracer): 1.15; NanoBRET Fold Response (CX3CR1; CX3CR1, 0.1μM tracer): 0.98
COc1ccccc1N1CCN(CCCCN2C(=O)c3ccc(CNC(=O)CCOCCNC(=O)c4ccc(CNC(=O)CCc5ccc6n5[B-](F)(F)[N+]5=C(c7ccc[nH]7)C=CC5=C6)cc4)cc3C2=O)CC1 [NAN-190-3-NB590] | 1.04 | 0.75 | 1.05 | 0.96 | 1.11 | 1.70 | 1.23 | 1.08 | 0.90 | 1.01 | –
N#CN=C(NCCCOc1cccc(CN2CCCCC2)c1)NCCNC(=O)CCOCCOCCOCCOCCNC(=O)CCc1ccc2n1[B-](F)(F)[N+]1=C(c3ccc[nH]3)C=CC1=C2 [Aminopotentidine-2-NB590] | 1.02 | 1.05 | 1.14 | 1.03 | 1.40 | 1.21 | 1.03 | 1.02 | 1.00 | 1.05 | –

Source: paper PMC8151276, “An Integrated Approach toward NanoBRET Tracers for Analysis of GPCR Ligand Engagement” (Molecules, 2021)
